# Where “and” joins values, the source holds several entries; their conditions need not be identical. Equal entries are not always repeated. Entries after “also recorded” stand apart in the source; their conditions may differ.
# Assays:
# [1] = biological target: DmelOrco M210W (Drosophila melanogaster, UniProt Q9VNB5, M210W); test: TEVC recording of VUAA1-induced current, DmelOrco M210W in Xenopus oocytes; assay type: cell-based
# From the text: (§1) All Orco gene sequences were optimized[63] for protein expression in Xenopus laevis oocytes with the GenSmartTM Codon optimization Tool and subcloned into a pGEMHE-derived vector. The wildtype gene of Drosophila melanogaster Orco (DmelOrco) was synthesized by Genscript and subcloned with XmaI/XhoI cloning sites. Site-directed mutagenesis of DmelOrco was done by PCR with the Q5® site directed mutagenesis kit (NEB) using primers optimized with the NEBase Changer online tool and following the supplier’s protocol. After transformation of commercial competent bacteria (XL10 Gold) by standard heat-shock protocol and overnight culture in ampicillin-containing LB plates, positive clones were identified by electrophoretic restriction profile and external sequencing (Genewiz). DNAs of positive clones were amplified with Qiagen MidiPrep Kit and the ORF was fully sequenced. For in vitro transcription, DNAs were linearized with restriction enzyme NotI that cuts a unique site in the 3′ region of the polyA tail. The linearized DNAs were purified by the standard phenol:chloroform extraction method and transcribed into mRNA using the T7 ultra mMessage mMachine kit (Thermo Fisher Scientific). mRNAs were purified with the NucleoSpin RNA plus XS kit (Machery-Nagel). DNA and RNA were analyzed by agarose-gel electrophoresis and quantified by spectrophotometry.
# (§2) Xenopus laevis oocytes were prepared, as previously described. Briefly, oocytes were defolliculated after surgical retrieval by type 1 A collagenase over 2-3 h under smooth horizontal agitation. They were manually selected and incubated at 19 °C in modified-Barth’s solution (1 mM KCl, 0.82 mM MgSO4, 88 mM NaCl, 2.4 mM NaHCO3, 0.41 mM CaCl2, Ca(NO3)2 0.3 mM, 16 mM HEPES, pH 7.4) supplemented with 100 U mL^−1 of penicillin and streptomycin and 0.1 mg mL^−1 of gentamycin. Each oocyte was micro-injected with the Nanoject instrument (Drummond) with 50 nL of 20 ng of mRNA coding for the Orco of interest. Injected oocytes were incubated individually in 96-well plates for 4 days at 19 °C in the same buffer. Different batches of oocytes have been tested per construct. The results of the mutants of interest have been confirmed by a second set of experiments comparing the amplitudes with WT in the same day and from the same batch of oocytes (Supplementary Fig. 11).
# (§3) Whole cell currents were recorded with the two-electrode voltage-clamp (TEVC) technique with the HiClamp robot (MultiChannel System). Microelectrodes were filled with 3 M KCl. The high K^+ buffer used for recordings was composed of 91 mM KCl, 1 mM MgCl2, 1.8 mM CaCl2, 5 mM HEPES, pH 7.4. Membrane voltage was clamped to −50 mV and VUAA1 was applied for 60 s. Data were extracted with M. Vivaudou’s programs[65] and statistically analyzed with Prism 8 (Graphpad).
# [2] = biological target: DmelOrco Y400A (Drosophila melanogaster, UniProt Q9VNB5, Y400A); test: TEVC recording of VUAA1-induced current, DmelOrco Y400A in Xenopus oocytes; assay type: cell-based; conditions: 500 µM VUAA1, TEVC
# DmelOrco Y400A, sequence (Q9VNB5 whole entry Y400A, the tested form may be a part): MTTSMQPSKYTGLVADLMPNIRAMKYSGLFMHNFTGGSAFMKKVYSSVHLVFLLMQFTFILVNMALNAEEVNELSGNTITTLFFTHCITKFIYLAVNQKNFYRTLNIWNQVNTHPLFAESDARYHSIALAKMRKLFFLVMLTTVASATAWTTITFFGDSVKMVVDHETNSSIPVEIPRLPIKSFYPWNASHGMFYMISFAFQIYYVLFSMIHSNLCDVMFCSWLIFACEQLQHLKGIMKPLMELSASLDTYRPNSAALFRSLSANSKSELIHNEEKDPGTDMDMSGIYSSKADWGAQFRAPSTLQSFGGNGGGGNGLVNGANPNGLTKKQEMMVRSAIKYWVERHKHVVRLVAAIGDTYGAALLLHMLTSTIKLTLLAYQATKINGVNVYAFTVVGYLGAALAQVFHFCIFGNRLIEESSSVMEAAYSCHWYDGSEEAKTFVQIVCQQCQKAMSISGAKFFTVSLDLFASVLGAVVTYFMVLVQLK
# From the text: as §1, with “The linearized DNAs were purified by the standard phenol:chloroform extraction method and transcribed into mRNA using the T7 ultra mMessage mMachine kit (Thermo Fisher Scientific). mRNAs were purified with the NucleoSpin RNA plus XS kit (Machery-Nagel).” left out, “spectrophotometry. […]” for “spectrophotometry.”
# (§4) Whole cell currents were recorded with the two-electrode voltage-clamp (TEVC) technique with the HiClamp robot (MultiChannel System). […] Data were extracted with M. Vivaudou’s programs[65] and statistically analyzed with Prism 8 (Graphpad).
# [3] = biological target: DmelOrco M210A (Drosophila melanogaster, UniProt Q9VNB5, M210A); test: TEVC recording of VUAA1-induced current, DmelOrco M210A in Xenopus oocytes; assay type: cell-based; conditions: 500 µM VUAA1, TEVC
# DmelOrco M210A, sequence (Q9VNB5 whole entry M210A, the tested form may be a part): as the sequence (Q9VNB5 whole entry Y400A, the tested form may be a part) above, with M210A, A400Y counted along it
# From the text: as §1, with “The linearized DNAs were purified by the standard phenol:chloroform extraction method and transcribed into mRNA using the T7 ultra mMessage mMachine kit (Thermo Fisher Scientific). mRNAs were purified with the NucleoSpin RNA plus XS kit (Machery-Nagel).” left out, “spectrophotometry. […]” for “spectrophotometry.”
# as §4
# [4] = biological target: DmelOrco I181W (Drosophila melanogaster, UniProt Q9VNB5, I181W); test: TEVC recording of VUAA1-induced current, DmelOrco I181W in Xenopus oocytes; assay type: cell-based; set-up: VUAA1-induced current, i181W: unit not given here
# DmelOrco I181W, sequence (Q9VNB5 whole entry I181W, the tested form may be a part): as the sequence (Q9VNB5 whole entry Y400A, the tested form may be a part) above, with I181W, A400Y counted along it
# From the text: as §1, with “The linearized DNAs were purified by the standard phenol:chloroform extraction method and transcribed into mRNA using the T7 ultra mMessage mMachine kit (Thermo Fisher Scientific). mRNAs were purified with the NucleoSpin RNA plus XS kit (Machery-Nagel).” left out, “spectrophotometry. […]” for “spectrophotometry.”
# as §4
# [5] = biological target: DmelOrco S146W (Drosophila melanogaster, UniProt Q9VNB5, S146W); test: TEVC recording of VUAA1-induced current, DmelOrco S146W in Xenopus oocytes; assay type: cell-based; conditions: 500 µM VUAA1, TEVC
# DmelOrco S146W, sequence (Q9VNB5 whole entry S146W, the tested form may be a part): as the sequence (Q9VNB5 whole entry Y400A, the tested form may be a part) above, with S146W, A400Y counted along it
# From the text: as §1, with “The linearized DNAs were purified by the standard phenol:chloroform extraction method and transcribed into mRNA using the T7 ultra mMessage mMachine kit (Thermo Fisher Scientific). mRNAs were purified with the NucleoSpin RNA plus XS kit (Machery-Nagel).” left out, “spectrophotometry. […]” for “spectrophotometry.”
# as §4
# [6] = test system: AgamOrco/AgamOR65; conditions: AgamOrco/AgamOR65; ref Tailor et al. 1; cited from earlier work
# [7] = biological target: DmelOrco Y397F (Drosophila melanogaster, UniProt Q9VNB5, Y397F); test: TEVC recording of VUAA1-induced current, DmelOrco Y397F in Xenopus oocytes; assay type: cell-based; set-up: VUAA1-induced current, Y397F: unit not given here
# DmelOrco Y397F, sequence (Q9VNB5 whole entry Y397F, the tested form may be a part): as the sequence (Q9VNB5 whole entry Y400A, the tested form may be a part) above, with Y397F, A400Y counted along it
# From the text: as §1, with “The linearized DNAs were purified by the standard phenol:chloroform extraction method and transcribed into mRNA using the T7 ultra mMessage mMachine kit (Thermo Fisher Scientific). mRNAs were purified with the NucleoSpin RNA plus XS kit (Machery-Nagel).” left out, “spectrophotometry. […]” for “spectrophotometry.”
# as §4
# [8] = biological target: DmelOrco F84A (Drosophila melanogaster, UniProt Q9VNB5, F84A); test: TEVC recording of VUAA1-induced current, DmelOrco F84A in Xenopus oocytes; assay type: cell-based
# DmelOrco F84A, sequence (Q9VNB5 whole entry F84A, the tested form may be a part): as the sequence (Q9VNB5 whole entry Y400A, the tested form may be a part) above, with F84A, A400Y counted along it
# From the text: as §1
# (§5) Xenopus laevis oocytes were prepared, as previously described. Briefly, oocytes were defolliculated after surgical retrieval by type 1 A collagenase over 2-3 h under smooth horizontal agitation. They were manually selected and incubated at 19 °C in modified-Barth’s solution (1 mM KCl, 0.82 mM MgSO4, 88 mM NaCl, 2.4 mM NaHCO3, 0.41 mM CaCl2, Ca(NO3)2 0.3 mM, 16 mM HEPES, pH 7.4) supplemented with 100 U mL^−1 of penicillin and streptomycin and 0.1 mg mL^−1 of gentamycin. […]
# as §4
# [9] = biological target: DmelOrco F84S (Drosophila melanogaster, UniProt Q9VNB5, F84S); test: TEVC recording of VUAA1-induced current, DmelOrco F84S in Xenopus oocytes; assay type: cell-based; conditions: 500 µM VUAA1, TEVC
# DmelOrco F84S, sequence (Q9VNB5 whole entry F84S, the tested form may be a part): as the sequence (Q9VNB5 whole entry Y400A, the tested form may be a part) above, with F84S, A400Y counted along it
# From the text: as §1, with “The linearized DNAs were purified by the standard phenol:chloroform extraction method and transcribed into mRNA using the T7 ultra mMessage mMachine kit (Thermo Fisher Scientific). mRNAs were purified with the NucleoSpin RNA plus XS kit (Machery-Nagel).” left out, “spectrophotometry. […]” for “spectrophotometry.”
# as §4
# [10] = biological target: DmelOrco Y390S (Drosophila melanogaster, UniProt Q9VNB5, Y390S); test: TEVC recording of VUAA1-induced current, DmelOrco Y390S in Xenopus oocytes; assay type: cell-based; conditions: 500 µM VUAA1, TEVC
# DmelOrco Y390S, sequence (Q9VNB5 whole entry Y390S, the tested form may be a part): as the sequence (Q9VNB5 whole entry Y400A, the tested form may be a part) above, with Y390S, A400Y counted along it
# From the text: as §1, with “The linearized DNAs were purified by the standard phenol:chloroform extraction method and transcribed into mRNA using the T7 ultra mMessage mMachine kit (Thermo Fisher Scientific). mRNAs were purified with the NucleoSpin RNA plus XS kit (Machery-Nagel).” left out, “spectrophotometry. […]” for “spectrophotometry.”
# as §4
# [11] = biological target: DmelOrco V206S (Drosophila melanogaster, UniProt Q9VNB5, V206S); test: TEVC recording of VUAA1-induced current, DmelOrco V206S in Xenopus oocytes; assay type: cell-based; set-up: unit not given here; conditions: Fig.4b; individual oocytes
# DmelOrco V206S, sequence (Q9VNB5 whole entry V206S, the tested form may be a part): as the sequence (Q9VNB5 whole entry Y400A, the tested form may be a part) above, with V206S, A400Y counted along it
# From the text: as §1, with “The linearized DNAs were purified by the standard phenol:chloroform extraction method and transcribed into mRNA using the T7 ultra mMessage mMachine kit (Thermo Fisher Scientific). mRNAs were purified with the NucleoSpin RNA plus XS kit (Machery-Nagel).” left out, “spectrophotometry. […]” for “spectrophotometry.”
# as §4
# [12] = biological target: DmelOrco S146V (Drosophila melanogaster, UniProt Q9VNB5, S146V); test: TEVC recording of VUAA1-induced current, DmelOrco S146V in Xenopus oocytes; assay type: cell-based
# DmelOrco S146V, sequence (Q9VNB5 whole entry S146V, the tested form may be a part): as the sequence (Q9VNB5 whole entry Y400A, the tested form may be a part) above, with S146V, A400Y counted along it
# From the text: as §1, §5, §4
# [13] = test system: MdesOrco H81F; conditions: H81 replaced by phenylalanine; cited from earlier work
# [14] = biological target: DmelOrco F83W (Drosophila melanogaster, UniProt Q9VNB5, F83W); test: TEVC recording of VUAA1-induced current, DmelOrco F83W in Xenopus oocytes; assay type: cell-based; conditions: 500 µM VUAA1, TEVC
# DmelOrco F83W, sequence (Q9VNB5 whole entry F83W, the tested form may be a part): as the sequence (Q9VNB5 whole entry Y400A, the tested form may be a part) above, with F83W, A400Y counted along it
# From the text: as §1, with “The linearized DNAs were purified by the standard phenol:chloroform extraction method and transcribed into mRNA using the T7 ultra mMessage mMachine kit (Thermo Fisher Scientific). mRNAs were purified with the NucleoSpin RNA plus XS kit (Machery-Nagel).” left out, “spectrophotometry. […]” for “spectrophotometry.”
# as §4
# [15] = biological target: DmelOrco Y397S (Drosophila melanogaster, UniProt Q9VNB5, Y397S); test: TEVC recording of VUAA1-induced current, DmelOrco Y397S in Xenopus oocytes; assay type: cell-based
# DmelOrco Y397S, sequence (Q9VNB5 whole entry Y397S, the tested form may be a part): as the sequence (Q9VNB5 whole entry Y400A, the tested form may be a part) above, with Y397S, A400Y counted along it
# From the text: as §1, with “The linearized DNAs were purified by the standard phenol:chloroform extraction method and transcribed into mRNA using the T7 ultra mMessage mMachine kit (Thermo Fisher Scientific). mRNAs were purified with the NucleoSpin RNA plus XS kit (Machery-Nagel).” left out, “spectrophotometry. […]” for “spectrophotometry.”
# as §4
# [16] = biological target: DmelOrco Y390F (Drosophila melanogaster, UniProt Q9VNB5, Y390F); test: TEVC recording of VUAA1-induced current, DmelOrco Y390F in Xenopus oocytes; assay type: cell-based; conditions: 500 µM VUAA1, TEVC
# DmelOrco Y390F, sequence (Q9VNB5 whole entry Y390F, the tested form may be a part): as the sequence (Q9VNB5 whole entry Y400A, the tested form may be a part) above, with Y390F, A400Y counted along it
# From the text: as §1, with “The linearized DNAs were purified by the standard phenol:chloroform extraction method and transcribed into mRNA using the T7 ultra mMessage mMachine kit (Thermo Fisher Scientific). mRNAs were purified with the NucleoSpin RNA plus XS kit (Machery-Nagel).” left out, “spectrophotometry. […]” for “spectrophotometry.”
# as §4
# [17] = test system: non-injected oocytes; test: TEVC recording, negative control (NC) oocytes, non-injected or water-injected; assay type: cell-based, Xenopus laevis; conditions: Fig.4b; individual oocytes; in µA
# Procedure: as §2
# as §3, with “Membrane voltage was clamped to −50 mV and VUAA1 was applied for 60 s.” left out
# [18] = biological target: DmelOrco F84W (Drosophila melanogaster, UniProt Q9VNB5, F84W); test: TEVC recording of VUAA1-induced current, DmelOrco F84W in Xenopus oocytes; assay type: cell-based; conditions: 500 µM VUAA1, TEVC
# DmelOrco F84W, sequence (Q9VNB5 whole entry F84W, the tested form may be a part): as the sequence (Q9VNB5 whole entry Y400A, the tested form may be a part) above, with F84W, A400Y counted along it
# From the text: as §1, with “The linearized DNAs were purified by the standard phenol:chloroform extraction method and transcribed into mRNA using the T7 ultra mMessage mMachine kit (Thermo Fisher Scientific). mRNAs were purified with the NucleoSpin RNA plus XS kit (Machery-Nagel).” left out, “spectrophotometry. […]” for “spectrophotometry.”
# as §4
# DmelOrco M210W, sequence (Q9VNB5 whole entry M210W, the tested form may be a part): as the sequence (Q9VNB5 whole entry Y400A, the tested form may be a part) above, with M210W, A400Y counted along it
smiles,measurement,setting,value
"CCc1ccc(NC(=O)CSc2nnc(-c3cccnc3)n2CC)cc1 [VUAA1, N-(4-ethylphenyl)−2-((4-ethyl-5-(3-pyridinyl)−4H-1,2,4-triazol-3-yl)thio)acetamide]",EC50,[1],120 µM
same,Current induced by VUAA1 (median),"[1]; 500 µM VUAA1, TEVC, M210W",2.12 µA
same,Response to VUAA1 compared with WT,"[1]; 500 µM VUAA1, TEVC, M210W",significant decrease in the response
same,Imax,"[1]; concentration-effect curve of VUAA1, TEVC, M210W",1.50 µA
same,Response to VUAA1 compared with WT,[2],did not significantly change the response
same,Current induced by VUAA1 (median),[3],5.72 µA
same,Response to VUAA1 compared with WT,"[4]; 500 µM VUAA1, TEVC, I181W",significantly reduced or abolished the activation; also recorded: clear loss of VUAA1 activation
same,"VUAA1-induced current, i181W","[4]; Fig.4b, individual oocytes",0.52 and 0.99 and 0.9 and 0.42 and 0.27 and 1.33 and 0.95 and 0.29 and 0.18 and 1.75 and 2.06 and 1.1 and 0.66 and 0.22 and 0.14 and 0.54 and 0.08
same,Response to VUAA1 compared with WT,[5],significant decrease in the response
same,EC50,[6],37 µM
same,Response to VUAA1 compared with WT,"[7]; 500 µM VUAA1, TEVC, Y397F",did not significantly change the amplitude of activation
same,"VUAA1-induced current, Y397F","[7]; Fig.4b, individual oocytes",14.1 and 7.4 and 4.67 and 7.65 and 5.6 and 7.22 and 3.47 and 4.51 and 1.74 and 9.4 and 9.69 and 15.89
same,EC50,[8],105 µM
same,Current induced by VUAA1 (median),"[8]; 500 µM VUAA1, TEVC, F84A",0.68 µA
same,Imax,"[8]; concentration-effect curve of VUAA1, TEVC, F84A",1.01 µA
same,Response to VUAA1 compared with WT,[9],decreased the response
same,Current induced by VUAA1 (median),[10],2.44 µA
same,"VUAA1-induced current, V206S",[11],3.68 and 9.72 and 7.51 and 6.18 and 8.36 and 5.44 and 4.17 and 5.76
same,EC50,[12],82.2 µM
same,Current induced by VUAA1 (median),"[12]; 500 µM VUAA1, TEVC, S146V",11.68 µA
same,Imax,"[12]; concentration-effect curve of VUAA1, TEVC, S146V",6.99 µA
same,Response of MdesOrco H81F to VUAA1,[13],induced a response to VUAA1
same,Response to VUAA1 compared with WT,[14],decreased the response; also recorded: significant decrease in the response
same,Response to VUAA1 compared with WT,"[15]; 500 µM VUAA1, TEVC, Y397S",no significant effect; also recorded: did not significantly change the amplitude of activation
same,"VUAA1-induced current, Y397S","[15]; Fig.4b, individual oocytes",0.98 and 1.78 and 4.23 and 0.82 and 0.77 and 1.48 and 8.3 and 6.29 and 5.87 and 5.52 and 1.76 and 2.18 and 1.83
same,Response to VUAA1 compared with WT,[16],did not show significant change
same,"VUAA1-induced current, NC",[17],0.05 and 0.03 and 0.3 and 0.19 and 0.39 and 0.02
same,Response to VUAA1 compared with WT,[18],did not induce a significant change

# From PMC10713630, “Elucidation of the structural basis for ligand binding and translocation in conserved insect odorant receptor co-receptors” (Nature Communications, 2023)
